According to patent US7264314B2, “Adrenocorticotropic hormone analogs and related methods” (priority 2004, dated 2007):

Assays:
[1] = test system: ACTH-induced serum corticosterone in dexamethasone-suppressed mice; assay: in vivo Serum Corticosteroid Inhibition Assay; parameters: species or system FVB/N mice; conditions: peptide alone 120 minutes after dexamethasone, blood one hour later
Source text: An in vivo Serum Corticosteroid Inhibition Assay measures the level of corticosteroid or corticosterone in the blood stream of a subject after administering a compound having a first corticosteroid-producing biological activity and a test compound. The compound having the corticosteroid-producing biological activity can be any compound known to induce a detectable increase in corticosteroid production. The test compound can be administered before the corticosteroid-producing compound, in combination with the corticosteroid-producing compound, and/or after the corticosteroid-producing compound. The corticosteroid-producing compound is preferably ACTH, but can also be an ACTH analog with a known corticosteroid-producing biological activity. By performing a series of in vivo Serum Corticosteroid Inhibition Assays using ACTH analog test compounds, ACTH analogs that inhibit the production of corticosteroid relative to the corticosteroid-producing compound used can be identified. Preferably, the ACTH analogs identified in this manner inhibit the production of corticosteroid in the presence of endogenous unmodified ACTH.
The in vivo Serum Corticosteroid Inhibition Assay can include sequential administration of the test compound and the corticosteroid-producing compound by the following steps: first, an agent to suppress endogenous ACTH production was administered to a mouse subject, such as an intraperitoneal injection of dexamethasone; second, after waiting a suitable period of time for suppression of endogenous ACTH production (e.g., 1.5–2.0 hours), a test compound was administered to the mouse by a suitable method, such as intraperitoneal injection; third, after waiting a suitable period of time (e.g., 1 hour) for action of the test compound, a compound with corticosteroid-producing activity can be administered to the mouse by a suitable method, such as intraperitoneal injection; and fourth, after waiting a suitable period of time for the biological activity of both administered compounds to occur (e.g., 1 hour), a blood sample was taken from the subject and the level of serum corticosterone was determined by a suitable method, such as a competitive radioimmunoassay using ^125I RIA kit (ICN, Costa Mesa, Calif.). Optionally, steps two and three can be reversed (administering the corticosteroid-producing compound first, followed by administration of the test compound). The in vivo Serum Corticosteroid Inhibition Assay can also include co-administration of the test compound and the corticosteroid-producing compound by the following steps: first, an agent to suppress endogenous ACTH production was administered to a mouse subject, such as an intraperitoneal injection of dexamethasone; second, after waiting a suitable period of time for suppression of endogenous ACTH production (e.g., 1.5–2.0 hours), the corticosteroid-producing compound and a test compound were co-administered to the mouse by a suitable method, such as intraperitoneal injection; and third, after waiting a suitable period of time for the biological activity of both administered compounds to occur (e.g., 1 hour), a blood sample was taken from the subject and the level of serum corticosterone was determined by a suitable method, such as a competitive radioimmunoassay using ^125I RIA kit (ICN, Costa Mesa, Calif.). Also, in some embodiments, the first step in any in vivo Serum Corticosteroid Inhibition Assay can be replaced by a measurement of the initial endogenous corticosteroid or corticosteroid level in the blood of the subject in the manner of step four, instead of administering the agent to suppress ACTH production. Example 2 describes murine in vivo Serum Corticosteroid Inhibition Assays in detail.
A series of separate in vivo Serum Corticosteroid Inhibition Assays were performed to identify ACTH analogs that inhibit ACTH adrenal hormone production in vivo. […]

[2] = in vivo; cited from earlier work
[3] = target: T1, adrenal ACTH receptors such as MC-2R (explanted adrenal membrane) (Mus musculus, UniProt Q64326); assay: in vitro Serum-free Adrenal Competitive Binding Assay; parameters: species or system mice; conditions: cold peptide at 10 nM, 100 nM, 1000 nM
T1 construct: the adrenal halves were macerated or otherwise dissociated using Dounce Homogenizer to form a membrane fraction; from tissue; host or cells: membrane fraction of explanted mouse adrenal glands
Source text: ACTH analog compounds that bind to adrenal membrane with a greater affinity than endogenous unmodified ACTH, and are able to displace unmodified ACTH can be identified using an in vitro Serum-free Adrenal Competitive Binding Assay (Example 3). […] A higher CPM level indicates the presence of greater amounts of the radiolabelled compound. […] Column 220 indicates the level of radio-labeled unmodified mACTH(1–24) detected after combining the explanted adrenal membrane with only the radio-labeled mACTH(1–24) for 2 hours.(no competitive binding). Columns 230, 240, and 250 show the results of competitive binding assays for binding of non-radio-labeled (“cold”) mACTH(1–24) to displace the radio-labeled mACTH(1–24) from the explanted adrenal membrane (measured in column 220) by competitive binding to receptors such as MC-2R on the adrenal membrane. […]
ACTH analogs with the ability to bind adrenal receptors with a greater affinity than compounds with known adrenal binding activity (preferably ACTH) can also be identified by performing an in vitro Adrenal Competitive Binding Assay, whereby measurement of the reduction in the amount of the radiolabelled adrenal-binding compound (e.g., ACTH) is measured at various concentrations of non-radio-labeled ACTH analog test compound in a medium containing explanted adrenal membrane. […]

T1 sequence (Q64326 whole entry): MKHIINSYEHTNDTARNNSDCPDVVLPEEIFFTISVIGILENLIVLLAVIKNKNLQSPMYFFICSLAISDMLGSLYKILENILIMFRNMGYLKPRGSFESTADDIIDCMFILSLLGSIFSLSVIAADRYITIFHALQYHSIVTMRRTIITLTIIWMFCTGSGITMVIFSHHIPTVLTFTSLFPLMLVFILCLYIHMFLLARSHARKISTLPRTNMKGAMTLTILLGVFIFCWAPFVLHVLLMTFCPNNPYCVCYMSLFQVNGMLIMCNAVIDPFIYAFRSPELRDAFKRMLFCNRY
T1 sequence (Q9D159 whole entry partner): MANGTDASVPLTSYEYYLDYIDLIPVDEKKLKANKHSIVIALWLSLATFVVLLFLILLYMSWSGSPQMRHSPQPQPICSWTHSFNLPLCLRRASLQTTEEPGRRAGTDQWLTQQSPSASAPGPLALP

Substance: N-Ser^1-Tyr-Ser-Met-Glu^5-His-Phe-Arg-Trp-Gly^10-Lys-Pro-Val-Gly-Lys^15-Lys-Arg-Arg-Pro-Val^20-Lys-Val-Tyr-Pro-Ac [mACTH(1–24), reference compound]
- serum corticosterone level at 180 minutes [1]: 500 ± 76 ng/mL
- serum corticosterone level at 180 minutes ([1]; listed as ACTH): 500 ± 76 ng/mL
- half life in blood [2]: less than 20 minutes
- displacement of radio-labeled mACTH(1–24) from explanted adrenal membrane (CPM) [3]: displacement of the radio-labeled mACTH(1–24)
